According to patent US6951682B1, “Porous coatings bearing ligand arrays and use thereof” (Syntrix Biochip, Inc., priority 1998, dated 2005):

Tests used:
[1] = system: PNA-array linker-spacer-CGN1N2TCCG-NH2; assay: Hybridization of fluorescein-labeled DNA-receptor to 16-element PNA-array on patterned porous coating (epifluorescence); assay type: binding; settings: 10 μM in 6×SSPE, 10 minutes at room temperature; 10× objective, 15 seconds exposure
Experimental: A patterned porous coating comprising a 4×4 array of 600 μm×600 μm porous squares was prepared as described in Example 19, and coupled with amino-linker molecules using the method described in Example 20. The PNA-array was then synthesized on the surface of the patterned porous coating with each array element occupying one 600 μm×600 μm porous square. Each element of the array comprised one of the 16 possible combinations of the sequence, linker-spacer-CGN1N2TCCG-NH2, where N1 and N2 may independently be A, G, C, or T. The position of each element in the array, as referenced by the N1N2 sequence, is shown in the array schematics of FIGS. 6A and 6B. […]
The fluorescence image of the porous coating was captured at room temperature using a 35 mm camera attached to a Standard Epifluorescence Microscope. The fluorescence image of FAA bound at the predicted array element is readily detected and visualized using an objective magnification of 10× and an exposure time of 15 seconds (see FIG. 6 and corresponding surface plot).
Bound FAA was dissociated from the PNA-array by immersing the slide in 90° C. water, and the hybridization repeated with FTA using conditions as described above for FAA. The fluorescence image of the FTA hybridization was captured with the 10× objective of a Standard Epifluorescence Microscope with attached 35 mm camera. […]

[2] = system: surface-bound DNA-ligand 5′-GCCTACGC-3′; assay: Hybridization of fluorescein-labeled DNA-receptor to DNA-ligand synthesized on patterned porous coating (epifluorescence); assay type: binding; settings: 10 μM in 6×SSPE, 1 hour at 4° C., wash at 15° C.; 10× objective, 15 seconds exposure
Experimental: Using the DNA synthesizer to automatically deliver reagents, the DNA-ligand with the sequence 5′-[…]-3′ was synthesized via eight phosphoramidite couplings on the exposed hydroxyl groups beginning with the 3′ end. Following synthesis, the reactor system was separated from the DNA synthesizer, and the phosphate and exocyclic amine protecting groups removed by manually applying 0.05 M potassium carbonate in methanol to the reactor cavity for 2 hours at room temperature. […]
The 6×SSPE solution is a high-salt buffer with a pH of 7.4 comprising 1M NaCl, 66 mM NaH2PO4/Na2HPO4, 6 mM EDTA, and 0.05° Triton X-100-™ The slide was subsequently washed in 6×SSPE at a temperature of 15° C., and mounted on a modified microscope stage attached to a Standard Epifluorescence Microscope The stage contained an aqueous gel within its interior that was chilled to approximately 4° C. prior to image acquisition. The fluorescence image of FTA hybridized to the porous coating was captured using a 35 mm camera attached to the microscope. […]
Following hybridization, the slide was washed in 6×SSPE at a temperature of 15° C. and mounted on the modified stage as described above. The fluorescence image of the FAA hybridization was captured with the 10× objective of a Standard Epifluorescence Microscope with attached 35 mm camera. […]

[3] = biological target: T1, angiotensin converting enzyme (ACE) (Homo sapiens, UniProt P12821); settings: as reported by Patchett et al.; read-out: IC50 (binding affinity for ACE); cited from earlier work
T1 sequence (P12821 30-1306, species assumed): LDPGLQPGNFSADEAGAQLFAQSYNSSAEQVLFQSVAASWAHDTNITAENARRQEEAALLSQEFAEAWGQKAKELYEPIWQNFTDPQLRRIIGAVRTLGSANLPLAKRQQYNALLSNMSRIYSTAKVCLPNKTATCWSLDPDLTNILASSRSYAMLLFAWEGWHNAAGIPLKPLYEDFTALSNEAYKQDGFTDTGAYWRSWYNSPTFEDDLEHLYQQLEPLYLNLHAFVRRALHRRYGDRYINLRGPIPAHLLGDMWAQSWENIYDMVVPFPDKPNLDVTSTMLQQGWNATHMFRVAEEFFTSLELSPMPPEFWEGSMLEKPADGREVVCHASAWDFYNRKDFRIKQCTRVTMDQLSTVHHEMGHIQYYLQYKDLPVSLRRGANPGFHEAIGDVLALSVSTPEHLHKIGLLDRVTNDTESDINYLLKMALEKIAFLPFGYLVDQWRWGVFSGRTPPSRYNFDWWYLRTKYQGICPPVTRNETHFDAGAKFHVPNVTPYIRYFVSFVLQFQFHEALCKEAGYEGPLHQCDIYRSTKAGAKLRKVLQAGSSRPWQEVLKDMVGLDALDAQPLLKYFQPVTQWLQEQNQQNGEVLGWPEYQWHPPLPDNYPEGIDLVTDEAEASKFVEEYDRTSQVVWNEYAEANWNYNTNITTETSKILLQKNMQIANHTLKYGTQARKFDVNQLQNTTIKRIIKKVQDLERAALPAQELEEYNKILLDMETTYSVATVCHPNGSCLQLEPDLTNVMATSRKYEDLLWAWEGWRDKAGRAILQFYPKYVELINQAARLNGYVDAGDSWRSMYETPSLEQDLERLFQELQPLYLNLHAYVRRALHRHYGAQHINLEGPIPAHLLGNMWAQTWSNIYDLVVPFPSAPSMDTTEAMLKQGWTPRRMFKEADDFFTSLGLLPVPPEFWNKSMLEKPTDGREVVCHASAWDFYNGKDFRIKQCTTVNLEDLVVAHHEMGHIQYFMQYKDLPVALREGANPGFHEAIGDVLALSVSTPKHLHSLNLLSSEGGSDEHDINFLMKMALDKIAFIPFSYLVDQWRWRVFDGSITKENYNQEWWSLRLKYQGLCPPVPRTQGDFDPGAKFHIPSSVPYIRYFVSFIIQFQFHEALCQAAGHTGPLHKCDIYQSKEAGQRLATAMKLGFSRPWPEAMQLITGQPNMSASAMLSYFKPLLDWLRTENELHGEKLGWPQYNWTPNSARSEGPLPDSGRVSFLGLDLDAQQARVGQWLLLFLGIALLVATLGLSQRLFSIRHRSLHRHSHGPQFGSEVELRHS

[4] = biological target: T1, angiotensin converting enzyme (ACE); assay: ACE inhibitory activity, functional assay with substrate FAPGG (absorbance at 328 nm); assay type: biochemical; settings: 10 nM ACE, 50 μM FAPGG
Experimental: Each assay mixture contained 10 nM ACE, 50 μM FAPGG, 50 mM Tris (pH 8.3), 300 mM NaCl, and 20-40 μl of each of the above analogue solutions in a total reaction volume of 50 μl. The above mixture without analogue served as the negative control for inhibitory activity. […] Each reaction was initiated by adding 5 μl of 500 μM FAPGG to 45 μl of the remaining assay components in a 100 μl cuvette. The temporal progress of each reaction was monitored by measuring the absorbance at 328 nm every 15 seconds.
The percent ACE inhibition is expressed as the percent decrease in initial velocity relative to the initial velocity of the negative control. […] Compositions are referenced by R1 and R2 groups as defined in Table XI.

percent ACE inhibition (percent decrease in initial velocity relative to the negative control) ([4]; analogue cleaved from one array element of a 1 μm thick porous coat, pH 8.3) [%]	initial velocity ([4]; positive control, 250 nM lisinopril)	Compound	specificity of hybridization to PNA-array [1]	fluorescence image of hybridized DNA-receptor [2]	IC50 [3] [nM]
		5′-GCGAAGGC-fluorescein [FAA]	hybridizes specifically to its complementary PNA sequence with little or no signal from other array elements	equivalent to the images with no receptor	
		5′-GCGTAGGC-fluorescein [FTA]	hybridizes specifically to its complementary PNA sequence with little or no signal from other array elements	readily visible	
35		CC(NC(Cc1ccccc1)C(=O)O)C(=O)N1CCCC1C(=O)O (stereo not shown) [R1a+R2a]			39
	zero	NCCCC[C@H](N[C@@H](CCc1ccccc1)C(=O)O)C(=O)N1CCC[C@H]1C(=O)O [lisinopril]			
